Laboratory results from patent US20230203081A1, “LINCOSAMIDE ANTIBIOTICS AND USES THEREOF” (President and Fellows of Harvard College, priority 2020, published 2023).
Converted amounts (≈) assume the structure as drawn.

Legend:
Format in all cases: cell-based
E. coli ΔTolC = experiment: microbe, parasite or virus in culture; settings: Escherichia coli, E. coli ΔTolC
Description: (§1) Minimum inhibitory concentrations (MICs) were determined by broth microdilution method or agar dilution method following the Clinical and Laboratory Standards Institute guidelines. Standard bacterial strains were obtained from American Type Culture Collection (ATCC). Other bacterial strains were obtained from hospitals and commercial sources, so noted in Table 11. […] Specialized procedures were employed for streptococcal and anaerobic strains. All other bacterial strains were sub-cultured on blood agar plates (tryptic soy agar with 5% sheep blood, Hardy Diagnostics) and incubated overnight at 35° C. […] Suspensions were further diluted to obtain a final inoculum of 5×10^5 CFU/mL for broth microdilution experiments.

E. faecium Clinical VRE = experiment: MIC (broth microdilution or agar dilution, CLSI); settings: Enterococcus faecium; E. faecium Clinical VRE; read-out: MIC
Description: (§2) Minimum inhibitory concentrations (MICs) were determined by broth microdilution method or agar dilution method following the Clinical and Laboratory Standards Institute guidelines. Standard bacterial strains were obtained from American Type Culture Collection (ATCC). Other bacterial strains were obtained from hospitals and commercial sources, so noted in Table 11. Before the start of the MIC experiment, standard and test compound stock solutions were prepared in dimethyl sulfoxide (DMSO, Aldrich D2650) at a stock concentration of 5,120 μg/mL. The compound concentration range typically employed for each experiment was 128-0.06 μg/mL (2.5% final DMSO concentration). Clindamycin was used as a comparator in all experiments and each experiment was performed in triplicate. Specialized procedures were employed for streptococcal and anaerobic strains. All other bacterial strains were sub-cultured on blood agar plates (tryptic soy agar with 5% sheep blood, Hardy Diagnostics) and incubated overnight at 35° C. Organisms were suspended in cation-adjusted Mueller-Hinton broth (CaMHB, BD 212322) and optical density was adjusted to 0.5 McFarland standard. Suspensions were further diluted to obtain a final inoculum of 5×10^5 CFU/mL for broth microdilution experiments.

S. aureus cErmA = experiment: MIC (broth microdilution or agar dilution, CLSI); settings: Staphylococcus aureus; S. aureus cErmA; read-out: MIC
Description: as §2

E. coli ATCC 25922 = experiment: MIC (broth microdilution or agar dilution, CLSI); settings: Escherichia coli, ATCC25922; E. coli ATCC 25922; read-out: MIC
Description: as §1

E. coli LptD = experiment: MIC (broth microdilution or agar dilution, CLSI); settings: Escherichia coli, E. coli LptD; read-out: MIC
Description: as §1

E. faecalis ATCC 29212 = experiment: MIC (broth microdilution or agar dilution, CLSI); settings: Enterococcus faecalis, ATCC29212, E. faecalis ATCC 29212; read-out: MIC
Description: as §1

K. oxytoca Clinical = experiment: MIC (broth microdilution or agar dilution, CLSI); settings: Klebsiella oxytoca; K. oxytoca Clinical; read-out: MIC
Description: as §1

S. aureus ATCC 29213 = experiment: MIC (broth microdilution or agar dilution, CLSI); settings: Staphylococcus aureus, ATCC29213, S. aureus ATCC 29213; read-out: MIC
Description: as §1

S. pneumoniae ATCC 49619 = experiment: MIC (broth microdilution or agar dilution, CLSI); settings: Streptococcus pneumoniae, ATCC49619, S. pneumoniae ATCC 49619; read-out: MIC
Description: as §1

S. pyogenes ATCC 19615 = experiment: MIC (broth microdilution or agar dilution, CLSI); settings: Streptococcus pyogenes, ATCC19615, S. pyogenes ATCC 19615; read-out: MIC
Description: as §1

[1] = tested on: broad panel of different clinical isolates; experiment: microbe, parasite or virus in culture; settings: Staphylococcus aureus, norA
Description: as §1

Compound	MIC (E. coli ΔTolC) [µg/mL]	MIC (E. faecium Clinical VRE) [µg/mL]	MIC (S. aureus cErmA) [µg/mL]	MIC (E. coli ATCC 25922) [µg/mL]	MIC (E. coli LptD) [µg/mL]	MIC (E. faecalis ATCC 29212) [µg/mL]	MIC (K. oxytoca Clinical) [µg/mL]	MIC (S. aureus ATCC 29213) [µg/mL]	MIC (S. pneumoniae ATCC 49619) [µg/mL]	MIC (S. pyogenes ATCC 19615) [µg/mL]	MIC ([1]; S. aureus HAV#051, mecA, spcl, ermA, aad1, aac6′-aph2″) [µg/mL]	MIC ([1]; S. aureus HAV#052, mecA, fosB, blaZ) [µg/mL]	MIC ([1]; S. aureus HAV#053 mecA, fosB) [µg/mL]	MIC ([1]; S. aureus HAV#054, mecA, spcl, aad1, fosB, ermA, aac6′-aph2″, blaZ) [µg/mL]
CS[C@H]1O[C@H]([C@H](NC(=O)[C@H]2NC[C@@H]3C[C@H](CC(C)C)CCO[C@H]32)C(C)C(F)(F)F)[C@H](O)[C@H](O)[C@H]1O (mixture of isomers) [FSA-09-04-081, (4S,5aS,8S,8aR)-4-Isobutyl-N-((1R)-3,3,3-trifluoro-2-methyl-1-((2R,3R,4S,5R,6R)-3,4,5-trihydroxy-6-(methylthio)tetrahydro-2H-pyran-2-yl)propyl)octahydro-2H-oxepino[2,3-c]pyrrole-8-carboxamide]	2 (≈ 3.78 µM)	0.25 (≈ 0.473 µM)	8 (≈ 15.1 µM)	32 (≈ 60.5 µM)	2 (≈ 3.78 µM)	0.125 (≈ 0.236 µM)	32 (≈ 60.5 µM)	0.125 (≈ 0.236 µM)	0.125 (≈ 0.236 µM)	0.125 (≈ 0.236 µM)				
NCC[C@H](O)C(=O)N[C@@H]1C[C@H](N)[C@@H](O[C@H]2O[C@H](CN)[C@@H](O)[C@H](O)[C@H]2O)[C@H](O)[C@H]1O[C@H]1O[C@H](CO)[C@@H](O)[C@H](N)[C@H]1O [Amikacin]											4 (≈ 6.83 µM)	4 (≈ 6.83 µM)	4 (≈ 6.83 µM)	64 (≈ 109 µM)
CS[C@H]1O[C@H]([C@H](NC(=O)[C@H]2NC[C@@H]3C[C@H](CC(C)C)CCO[C@H]32)[C@@H](C)O)[C@H](O)[C@H](O)[C@H]1O [FSA-09-04-072, (4S,5aS,8S,8aR)-N-((1R,2R)-2-Hydroxy-1-((2R,3R,4S,5R,6R)-3,4,5-trihydroxy-6-(methylthio)tetrahydro-2H-pyran-2-yl)propyl)-4-isobutyloctahydro-2H-oxepino[2,3-c]pyrrole-8-carboxamide]	1 (≈ 2.1 µM)	0.5 (≈ 1.05 µM)	32 (≈ 67.1 µM)	16 (≈ 33.6 µM)	2 (≈ 4.2 µM)	0.25 (≈ 0.525 µM)	16 (≈ 33.6 µM)	1 (≈ 2.1 µM)	0.5 (≈ 1.05 µM)	0.5 (≈ 1.05 µM)				
CS[C@H]1O[C@H]([C@H](NC(=O)[C@H]2NC[C@@H]3C[C@H](CC(C)C)CCO[C@H]32)[C@H](C)Sc2ccc(CCN(C)C)cc2)[C@H](O)[C@H](O)[C@H]1O [FSA-09-04-087, (4S,5aS,8S,8aR)-N-((1S,2S)-2-((4-(2-(Dimethylamino)ethyl)phenyl)thio)-1-((2R,3R,4S,5R,6R)-3,4,5-trihydroxy-6-(methylthio)tetrahydro-2H-pyran-2-yl)propyl)-4-isobutyloctahydro-2H-oxepino[2,3-c]pyrrole-8-carboxamide]	1 (≈ 1.56 µM)	4 (≈ 6.25 µM)	8 (≈ 12.5 µM)	16 (≈ 25 µM)	1 (≈ 1.56 µM)	0.5 (≈ 0.781 µM)	16 (≈ 25 µM)	1 (≈ 1.56 µM)	0.5 (≈ 0.781 µM)	0.5 (≈ 0.781 µM)				
CS[C@H]1O[C@H]([C@H](NC(=O)[C@H]2NC[C@@H]3C[C@H](CC(C)C)CCO[C@H]32)[C@H](C)Sc2nnc(N)s2)[C@H](O)[C@H](O)[C@H]1O [FSA-09-04-094, (4S,5aS,8S,8aR)-N-((1S,2S)-2-((5-Amino-1,3,4-thiadiazol-2-yl)thio)-1-((2R,3R,4S,5R,6R)-3,4,5-trihydroxy-6-(methylthio)tetrahydro-2H-pyran-2-yl)propyl)-4-isobutyloctahydro-2H-oxepino[2,3-c]pyrrole-8-carboxamide]	32 (≈ 54.1 µM)	128 (≈ 216 µM)	128 (≈ 216 µM)	> 128	64 (≈ 108 µM)	2 (≈ 3.38 µM)	> 128	4 (≈ 6.76 µM)	0.5 (≈ 0.845 µM)	1 (≈ 1.69 µM)				
CS[C@H]1O[C@H]([C@H](NC(=O)[C@H]2NC[C@@H]3C[C@H](CC(C)C)CCO[C@H]32)[C@H](C)Sc2nnc(N3CCNCC3)s2)[C@H](O)[C@H](O)[C@H]1O [FSA-09-05-011, (4S,5aS,8S,8aR)-4-Isobutyl-N-((1S,2S)-2-((5-(piperazin-1-yl)-1,3,4-thiadiazol-2-yl)thio)-1-((2R,3R,4S,5R,6R)-3,4,5-trihydroxy-6-(methylthio)tetrahydro-2H-pyran-2-yl)propyl)octahydro-2H-oxepino[2,3-c]pyrrole-8-carboxamide]	2 (≈ 3.03 µM)	32 (≈ 48.4 µM)	64 (≈ 96.8 µM)	32 (≈ 48.4 µM)	8 (≈ 12.1 µM)	2 (≈ 3.03 µM)	64 (≈ 96.8 µM)	4 (≈ 6.05 µM)	1 (≈ 1.51 µM)	1 (≈ 1.51 µM)				
CS[C@H]1O[C@H]([C@H](NC(=O)[C@H]2NC[C@@H]3C[C@H](CC(C)C)CCO[C@H]32)[C@H](C)Sc2ccc(CN3CCOCC3)cc2)[C@H](O)[C@H](O)[C@H]1O [FSA-09-05-68, (4S,5aS,8S,8aR)-4-Isobutyl-N-((1S,2S)-2-((4-(morpholinomethyl)phenyl)thio)-1-((2R,3R,4S,5R,6R)-3,4,5-trihydroxy-6-(methylthio)tetrahydro-2H-pyran-2-yl)propyl)octahydro-2H-oxepino[2,3-c]pyrrole-8-carboxamide]	2 (≈ 2.99 µM)	4 (≈ 5.99 µM)	8 (≈ 12 µM)	32 (≈ 47.9 µM)	2 (≈ 2.99 µM)	1 (≈ 1.5 µM)	32 (≈ 47.9 µM)	2 (≈ 2.99 µM)	0.125 (≈ 0.187 µM)	0.25 (≈ 0.374 µM)				
CS[C@H]1O[C@H]([C@H](NC(=O)[C@H]2NC[C@@H]3C[C@H](CC(C)C)CCO[C@H]32)[C@H](C)Sc2ccc(CO)cc2)[C@H](O)[C@H](O)[C@H]1O [FSA-09-05-069, (4S,5aS,8S,8aR)-N-((1S,2S)-2-((4-(Hydroxymethyl)phenyl)thio)-1-((2R,3R,4S,5R,6R)-3,4,5-trihydroxy-6-(methylthio)tetrahydro-2H-pyran-2-yl)propyl)-4-isobutyloctahydro-2H-oxepino[2,3-c]pyrrole-8-carboxamide]	4 (≈ 6.68 µM)	16 (≈ 26.7 µM)	64 (≈ 107 µM)	128 (≈ 214 µM)	16 (≈ 26.7 µM)	1 (≈ 1.67 µM)	128 (≈ 214 µM)	1 (≈ 1.67 µM)	0.125 (≈ 0.209 µM)	0.25 (≈ 0.417 µM)				
CS[C@H]1O[C@H]([C@H](NC(=O)[C@H]2NC[C@@H]3C[C@H](CC(C)C)CCO[C@H]32)[C@H](C)Sc2ccc(-c3cccnc3)cc2)[C@H](O)[C@H](O)[C@H]1O [FSA-09-05-074, (4S,5aS,8S,8aR)-4-Isobutyl-N-((1S,2S)-2-((4-(pyridin-3-yl)phenyl)thio)-1-((2R,3R,4S,5R,6R)-3,4,5-trihydroxy-6-(methylthio)tetrahydro-2H-pyran-2-yl)propyl)octahydro-2H-oxepino[2,3-c]pyrrole-8-carboxamide]	4 (≈ 6.19 µM)	2 (≈ 3.1 µM)	2 (≈ 3.1 µM)	32 (≈ 49.5 µM)	4 (≈ 6.19 µM)	0.5 (≈ 0.774 µM)	32 (≈ 49.5 µM)	1 (≈ 1.55 µM)	0.125 (≈ 0.194 µM)	0.25 (≈ 0.387 µM)				
